From US12059393B2, “Compositions for topical treatment of radiation dermatitis” (Akos Biosciences, Inc, priority 2022, dated 2024)

System: 3D in vitro skin model containing epidermal keratinocytes and dermal fibroblasts
Experiment: LDH cytotoxicity assay in 3D in vitro skin model
Format: cell-based
Conditions: positive control, no UV; defines 100% cytotoxicity
Procedure: A 3D in vitro skin model containing epidermal keratinocytes and dermal fibroblasts was used. Some tissues were irradiated with 200 mJ UVB/cm^2. Test materials were applied topically for 24 hours (after UVB exposure) and an MTT assay was used to check the viability of cells. The following treatment groups were used: • olive oil (no CBD); • CBD in olive oil in concentrations of 30, 60, 120, and 250 mg/mL; • No treatment; and • Triton-X® as positive control.
Cytotoxicity was assessed with a lactate dehydrogenase (LDH) assay using media collected from the wells of the tissues. Increased LDH activity is an indicator of damaged or dead cells.
The results are provided in the following Table A, with the untreated group defining 0% cytotoxicity and Triton-X defining 100% cytotoxicity. Lower cytotoxicity is better. * indicates p≤0.05 and ** indicates p≤0.01 statistical significance after performing unpaired t-test.

Triton-X was tested, and the “Cytotoxicity (%)” value was 100%.
